Earlier results in patent US7482336B2, “Aminocyclohexanes as dipeptidyl peptidase-IV inhibitors for the treatment or prevention of diabetes” (Merck & Co., Inc., priority 2004, dated 2009).
Each block holds one compound with its values, some of them ahead of it.

Assays:
[1] = rats; Transplantation 63: 1495-1500 (1997)
[2] = mouse, cyclophosphamide-induced neutropenia; WO 99/56753
[3] = biological target: T1, DPP-IV (Homo sapiens, UniProt P27487)
T1 construct: GRF is rapidly degraded in plasma to GRF[3-44]
T1 sequence (P27487 whole entry, species assumed): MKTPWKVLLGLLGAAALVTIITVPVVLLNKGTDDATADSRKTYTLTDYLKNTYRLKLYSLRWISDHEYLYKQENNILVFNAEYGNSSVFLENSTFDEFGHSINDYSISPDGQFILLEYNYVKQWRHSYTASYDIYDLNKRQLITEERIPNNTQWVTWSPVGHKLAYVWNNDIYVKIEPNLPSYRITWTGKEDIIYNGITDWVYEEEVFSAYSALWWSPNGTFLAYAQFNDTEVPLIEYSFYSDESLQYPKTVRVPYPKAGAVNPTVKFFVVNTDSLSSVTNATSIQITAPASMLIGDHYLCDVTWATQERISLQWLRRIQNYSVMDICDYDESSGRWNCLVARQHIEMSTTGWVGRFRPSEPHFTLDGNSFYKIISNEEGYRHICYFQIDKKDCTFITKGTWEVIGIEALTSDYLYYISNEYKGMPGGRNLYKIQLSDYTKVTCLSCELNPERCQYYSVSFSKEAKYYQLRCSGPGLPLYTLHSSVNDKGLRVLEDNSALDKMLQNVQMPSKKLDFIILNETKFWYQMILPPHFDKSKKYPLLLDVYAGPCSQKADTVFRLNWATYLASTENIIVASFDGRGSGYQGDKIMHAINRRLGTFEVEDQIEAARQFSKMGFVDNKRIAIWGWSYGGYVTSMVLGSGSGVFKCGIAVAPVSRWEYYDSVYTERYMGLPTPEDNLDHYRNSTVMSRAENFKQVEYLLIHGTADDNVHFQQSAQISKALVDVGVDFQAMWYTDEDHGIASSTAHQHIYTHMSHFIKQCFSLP

Compound: CC(C)N1CCC(c2ccccc2)(c2ccccc2)CC1 [Prodipine, Pro-Pro-diphenyl-phosphonate]
cardiac allograft survival [1]: double cardiac allograft survival in rats from day 7 to day 14

Compound: CC(C)[C@H](N)C(=O)N1CCC[C@H]1B(O)O [Val-Boro-Pro]
hematopoiesis [2]: stimulated hematopoiesis

degradation of GRF in plasma to GRF[3-44] [3]: prevented
Compound: diprotin A
